The numbers were not newly measured in US20020144302A1 (priority 1996, published 2002), which cites them from elsewhere.

The conditions of the series: man; daily dose around 200 mg (Vidal, 1996).

With `CC(C)OC(=O)C(C)(C)Oc1ccc(C(=O)c2ccc(Cl)cc2)cc1` [fenofibrate], the plasma concentration entry was “about 15 μg/ml”.
